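A five-concentration, 48-hour dose response in 96-well plates underlies each endpoint, interpolated linearly between surrounding concentrations. At the GI50, growth is halved.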 The source made the active and inactive calls. Cut-off read from the data, not from the text of the source: active = GI50 up to about 1.1 µM and inactive = higher.
Legend:
Assay in all cases: NCI anticancer screen, dose series, 48 h
[1] = system: HOP-62
[2] = system: SK-MEL-28
[3] = system: MCF7
[4] = system: HOP-92
[5] = system: TK-10
[6] = system: OVCAR-3
[7] = system: NCI-H23
[8] = system: DU-145
[9] = system: SF-268
[10] = system: OVCAR-4
[11] = system: U-251
[12] = system: LOX IMVI
[13] = system: Malme-3M
[14] = system: HL-60
[15] = system: ACHN
[16] = system: A549
[17] = system: HT-29
[18] = system: SNB-75
[19] = system: MOLT-4
[20] = system: MDA-MB-435
[21] = system: SF-295
[22] = system: UACC-257
[23] = system: HCC 2998
[24] = system: NCI-H226
[25] = system: NCI-H460
[26] = system: SNB-19
[27] = system: MDA-N
[28] = system: OVCAR-5
[29] = system: 786-0
[30] = system: SK-MEL-5
[31] = system: CAKI-1
[32] = system: HCT-116
[33] = system: PC-3
[34] = system: IGROV-1
[35] = system: UACC-62
[36] = system: SW-620
[37] = system: K562
[38] = system: COLO 205
[39] = system: KM12
[40] = system: SK-MEL-2
[41] = system: RPMI-8226
[42] = system: MDA-MB-231
[43] = system: CCRF-CEM
[44] = system: BT-549
[45] = system: NCI/ADR-RES
[46] = system: T47D
[47] = system: NCI-H522
[48] = system: A498
[49] = system: Hs-578T
[50] = system: M14
[51] = system: SK-OV-3
[52] = system: EKVX
[53] = system: SN12C
[54] = system: OVCAR-8
[55] = system: HCT-15
[56] = system: UO-31
[57] = system: RXF 393
[58] = system: SF-539

CC(CC(C#N)(c1ccccc1)c1ccccc1)N1CCCCC1 (stereo not given)
GI50 [1]: 29.2 µM (inactive)
GI50 [2]: 23.1 µM (inactive)
GI50 [3]: 26.5 µM (inactive)
GI50 [4]: 31.9 µM (inactive)
GI50 [5]: 20.6 µM (inactive)
GI50 [6]: 17.6 µM (inactive)
GI50 [7]: 37.8 µM (inactive)
GI50 [8]: 59.8 µM (inactive)
GI50 [9]: 48.9 µM (inactive)
GI50 [10]: 39.6 µM (inactive)
GI50 [11]: 29.6 µM (inactive)
GI50 [12]: 17.3 µM (inactive)
GI50 [13]: 17.3 µM (inactive)
GI50 [14]: 21 µM (inactive)
GI50 [15]: 43.7 µM (inactive)
GI50 [16]: 44 µM (inactive)
GI50 [17]: 18.3 µM (inactive)
GI50 [18]: 29.7 µM (inactive)
GI50 [19]: 22.4 µM (inactive)
GI50 [20]: 19.1 µM (inactive)
GI50 [21]: 20 µM (inactive)
GI50 [22]: 14.6 µM (inactive)
GI50 [23]: 15.4 µM (inactive)
GI50 [24]: 20.7 µM (inactive)
GI50 [25]: 16 µM (inactive)
GI50 [26]: 80.5 µM (inactive)
GI50 [27]: 19.1 µM (inactive)
GI50 [28]: 33.1 µM (inactive)
GI50 [29]: 27.3 µM (inactive)
GI50 [30]: 18 µM (inactive)
GI50 [31]: 39 µM (inactive)
GI50 [32]: 19.9 µM (inactive)
GI50 [33]: 32.6 µM (inactive)
GI50 [34]: 43.2 µM (inactive)
GI50 [35]: 21.3 µM (inactive)
GI50 [36]: 19.2 µM (inactive)
GI50 [37]: 19.3 µM (inactive)
GI50 [38]: 16.2 µM (inactive)
GI50 [39]: 18.1 µM (inactive)
GI50 [40]: 21.2 µM (inactive)
GI50 [41]: 19.2 µM (inactive)
GI50 [42]: 25.7 µM (inactive)
GI50 [43]: 23.6 µM (inactive)
GI50 [44]: 29.5 µM (inactive)
GI50 [45]: 28.1 µM (inactive)
GI50 [46]: 49.7 µM (inactive)
GI50 [47]: 18.6 µM (inactive)
GI50 [48]: 21.6 µM (inactive)
GI50 [49]: 27.3 µM (inactive)
GI50 [50]: 19 µM (inactive)
GI50 [51]: 65.6 µM (inactive)
GI50 [52]: 23.8 µM (inactive)
GI50 [53]: 26 µM (inactive)
GI50 [54]: 42.1 µM (inactive)
GI50 [55]: 22.9 µM
GI50 [56]: 26.2 µM (inactive)
GI50 [57]: 28.7 µM (inactive)

COc1ccc2nccc(/C=C/c3ccc(N(C)C)cc3)c2c1
GI50 [1]: > 10 µM (inactive)
GI50 [2]: > 10 µM (inactive)
GI50 [3]: > 10 µM (inactive)
GI50 [4]: > 10 µM (inactive)
GI50 [5]: > 10 µM (inactive)
GI50 [6]: > 10 µM (inactive)
GI50 [7]: > 10 µM (inactive)
GI50 [8]: > 10 µM (inactive)
GI50 [9]: > 10 µM (inactive)
GI50 [10]: > 10 µM (inactive)
GI50 [11]: > 10 µM (inactive)
GI50 [12]: > 10 µM (inactive)
GI50 [13]: > 10 µM (inactive)
GI50 [14]: > 10 µM (inactive)
GI50 [15]: > 10 µM (inactive)
GI50 [16]: > 10 µM (inactive)
GI50 [17]: > 10 µM (inactive)
GI50 [18]: 6.73 µM (inactive)
GI50 [19]: 8.18 µM (inactive)
GI50 [20]: 2.31 µM (inactive)
GI50 [21]: > 10 µM (inactive)
GI50 [22]: > 10 µM (inactive)
GI50 [23]: > 10 µM (inactive)
GI50 [24]: > 10 µM (inactive)
GI50 [25]: > 10 µM (inactive)
GI50 [26]: > 10 µM (inactive)
GI50 [27]: 3.02 µM (inactive)
GI50 [28]: > 10 µM (inactive)
GI50 [29]: > 10 µM (inactive)
GI50 [30]: > 10 µM (inactive)
GI50 [31]: > 10 µM (inactive)
GI50 [32]: 8.59 µM (inactive)
GI50 [33]: > 10 µM (inactive)
GI50 [34]: > 10 µM (inactive)
GI50 [35]: > 10 µM (inactive)
GI50 [36]: > 10 µM (inactive)
GI50 [37]: 6.41 µM (inactive)
GI50 [38]: > 10 µM (inactive)
GI50 [39]: > 10 µM (inactive)
GI50 [40]: > 10 µM (inactive)
GI50 [41]: > 10 µM (inactive)
GI50 [42]: > 10 µM (inactive)
GI50 [43]: 5.66 µM (inactive)
GI50 [44]: > 10 µM (inactive)
GI50 [45]: > 10 µM (inactive)
GI50 [46]: > 10 µM (inactive)
GI50 [47]: > 10 µM (inactive)
GI50 [48]: > 10 µM (inactive)
GI50 [49]: > 10 µM (inactive)
GI50 [50]: > 10 µM (inactive)
GI50 [51]: > 10 µM (inactive)
GI50 [58]: > 10 µM (inactive)
GI50 [52]: > 10 µM (inactive)
GI50 [53]: > 10 µM (inactive)
GI50 [54]: > 10 µM (inactive)
GI50 [55]: > 10 µM
GI50 [56]: > 10 µM (inactive)
GI50 [57]: > 10 µM (inactive)

From ChEMBL document CHEMBL1201862, “PubChem BioAssay data set” (2004)
